According to patent US8722910B2, “Diyne compositions” (Evolva AG, priority 2009, dated 2014):
In brackets after ≈: the same amount, converted by molar mass. Like-named read-outs stand apart in the source and are kept apart here. Each block holds one compound with its values, some of them ahead of it. Numbered stars: 1 amine (or outer) side, 2 acyl side, 3 side chain; on linkers, the order of the positions; unused ones are H or OH. Bridge positions count the residues as written; N and C are the ends. Square brackets hold non-standard residues; d marks the D form. Peptide text beside a SMILES is read from it. * marks the point of attachment. Orn(4R-OH,5R-OH) = O=C([C@H](C[C@@H](O)[C@@H](O)N[*:3])N[*:1])[*:2]; hTyr(3S-OH,4S-OH) = N[C@H](C(=O)O)[C@H](O)[C@@H](O)c1ccc(O)cc1; Pro(3S-OH,4S-Me) = C[C@H]1CN[C@H](C(=O)O)[C@H]1O; Benzoyl(4-octyloxy) = CCCCCCCCOc1ccc(C(=O)*)cc1; Hyp = O=C(O)[C@@H]1C[C@@H](O)CN1

Experiments:
[1] = tested on: Candida albicans; experiment: In vitro fungicidal activity vs. Candida albicans; details: Candida albicans
[2] = tested on: C. albicans SC5314; experiment: IC50 (50% growth inhibition) of diyne compounds; assay type: cell-based; details: Candida albicans; strain SC5314
Method: (§1) The inhibition is partly measured by minimum inhibitory and minimum fungicidal concentration (MIC and MFC, respectively) and partly as IC50 (i.e. concentration required for 50% inhibition).
(§2) IC50 against two different S. cerevisiae strains and two different C. albicans strains by a number of diyne compounds was determined and the results are shown in Table 17.

[3] = tested on: S. cerevisiae AD1-9; experiment: IC50 (50% growth inhibition) of diyne compounds; assay type: cell-based; details: strain AD1-9; for IC50: Saccharomyces cerevisiae, AD19
Method: as §1, §2

[4] = tested on: S. cerevisiae 2229-5C; experiment: IC50 (50% growth inhibition) of diyne compounds; assay type: cell-based; details: strain 2229-5C; for IC50: Saccharomyces cerevisiae, 22295C; for value in brackets after the IC50 bound (not explained): at the bound concentration
Method: as §1, §2

[5] = tested on: S. cerevisiae; experiment: Doubling times of S. cerevisiae; assay type: cell-based; details: 10 μg/ml oleic acid alone
Method: S. cerevisiae was cultured in the presence of 1 and 10 μg/ml of the potassium salt, 10 μg/ml oleic acid and 1 μg/ml of the potassium salt combined with 10 μg/ml oleic acid.
When S. cerevisiae was cultured in the presence of 1 and 10 μg/ml compound IV″, the doubling times increased to 2.4 h and 4.2 h, respectively, compared to 2 h for the untreated control. The addition of 10 μg/ml oleic acid, sodium salt, to 1 μg/ml compound IV″ reversed the doubling time to 2 h as observed for the untreated control or 10 μg/ml oleic acid, sodium salt alone.

[6] = tested on: OLE1; experiment: OLE1 expression by real time PCR; assay type: cell-based, S. cerevisiae; details: 10 μg/ml oleic acid alone
Method: The expression of OLE1 was determined by real time PCR 10, 60, 120 and 240 min after compound addition (Knechtle, P. and Greve, K., 2009). OLE1 transcript levels were calibrated to the expression of the tubulin gene (TUB1) and normalized to the OLE1 expression at 10 min without compound addition (FIG. 17(a)).
The expression of the OLE1 gene was determined by real time PCR 10, 60, 120 and 240 min for the conditions a.-e., as indicated in Table 3 above. OLE1 transcript levels were calibrated to the expression of the tubulin gene (TUB1) and normalized to the OLE1 expression at 10 min without compound addition. See FIG. 17a showing time dependent expressions of OLE1 in response to compound IV″. Conditions a.-e. are listed in Table 3 above, numbers indicate time intervals in minutes. Expressions of OLE1 are given as multiples of the expression at 10 min, condition a. […] 10 μg/ml oleic acid compensated for the OLE1 expression increase caused by 1 μg/ml compound IV alone. Compound IV″ dependent up-regulation of OLE1 expression thus confirms that compound IV″ is acting as an inhibitor of the Ole1 protein. The antagonistic effect of oleic acid found in the susceptibility assays, is reflected mechanistically in this experiment by a down-regulation of the target Ole1 protein through oleic acid.

[7] = tested on: C. albicans DSY1024; experiment: IC50 (50% growth inhibition) of diyne compounds; assay type: cell-based; details: Candida albicans, DSY1024, read-out: C. albicans IC50
Method: as §1, §2

[8] = tested on: C. parapsilosis ATCC-90018; experiment: MIC versus reference Candida strains (broth micro dilution); details: Lodderomyces parapsilosis, ATCC90018
[9] = tested on: C. albicans ATCC-90028; experiment: as above; details: Candida albicans, ATCC90028
[10] = tested on: C. tropicalis ATCC-750; experiment: as above; details: Candida tropicalis, ATCC750
[11] = tested on: C. krusei ATCC-6258; experiment: as above; details: Pichia kudriavzevii, ATCC6258
[12] = tested on: C. albicans ATCC-24433; experiment: as above; details: Candida albicans, ATCC24433
[13] = tested on: C. glabrata ATCC-90030; experiment: as above; details: Nakaseomyces glabratus, ATCC90030
[14] = tested on: C. albicans SC5314; experiment: as above; assay type: cell-based
[15] = tested on: C. parapsilosis ATCC-22019; experiment: as above; details: Lodderomyces parapsilosis, ATCC22019
[16] = tested on: Chitin Synthase; experiment: Inhibition of fungal cell wall synthesis enzymes; assay type: biochemical; details: 9.9 μg/ml
Source text: (§3) Specific inhibitors of each enzyme served as positive controls (Cilofungin, a β-glucan synthase inhibitor and nikkomycin Z, a chitin synthase inhibitor).

[17] = tested on: (1,3)β-Glucan Synthase; experiment: Inhibition of fungal cell wall synthesis enzymes; assay type: biochemical; details: 20.6 μg/ml
Source text: as §3

[18] = tested on: Microsporum canis; experiment: In vitro antifungal activity vs. dermatophytes (MIC/MFC); assay type: cell-based; details: 96 h; Microsporum canis (n = 15); 35° C., 4 days
[19] = tested on: T. rubrum; experiment: as above; assay type: cell-based; details: Trichophyton rubrum, 96 h; T. rubrum (n = 15); 35° C., 4 days
[20] = tested on: Trichophyton tonsurans; experiment: as above; assay type: cell-based; details: 96 h; Trichophyton tonsurans (n = 15); 35° C., 4 days
[21] = tested on: M. gypseum; experiment: as above; assay type: cell-based; details: Nannizzia gypsea, 96 h; M. gypseum (n = 1); 35° C., 4 days
[22] = tested on: Epidermophyton floccosum; experiment: as above; assay type: cell-based; details: 96 h; Epidermophyton floccosum (n = 15); 35° C., 4 days
[23] = tested on: M. cookie; experiment: as above; assay type: cell-based; details: 96 h; M. cookie (n = 1); 35° C., 4 days
[24] = tested on: T. terrestre; experiment: as above; assay type: cell-based; details: 96 h; T. terrestre (n = 1); 35° C., 4 days
[25] = tested on: all dermatophyte strains; experiment: MIC and MFC range over all dermatophyte strains tested; assay type: cell-based, dermatophytes; details: Table 14 strains
[26] = tested on: T. mentagrophytes; experiment: In vitro antifungal activity vs. dermatophytes (MIC/MFC); assay type: cell-based; details: Trichophyton mentagrophytes, 96 h; T. mentagrophytes (n = 15); 35° C., 4 days
[27] = tested on: M. gallinae; experiment: as above; assay type: cell-based; details: 96 h; M. gallinae (n = 1); 35° C., 4 days
[28] = tested on: T. rubrum, Terbinafine resistant isolates; experiment: as above; assay type: cell-based; details: Trichophyton rubrum, 96 h; T. rubrum (TERB-resistant) (n = 9); 35° C., 4 days
[29] = tested on: M. vanbreuseghemii; experiment: as above; assay type: cell-based; details: 96 h; M. vanbreuseghemii (n = 1); 35° C., 4 days
[30] = tested on: ergosterol biosynthesis; experiment: 13C-acetate incorporation into ergosterol; assay type: cell-based, Candida albicans; details: drug at about its MIC, added after the first 15 minutes

SMILES: C[C@@H]1C[C@@H]([C@H](O)CC2CC(=O)NC(=O)C2)C(=O)[C@@H](C)C1 [Cycloheximide]
Fungicidal Concentration [1]: 12,800,000 ng/ml | MIC90 ([1]; 24 h, read-out: MIC90 24 h): 1600 µg/mL (≈ 5690 µM) | MIC90 ([1]; 48 h, read-out: MIC90 48 h): 12800 µg/mL (≈ 45500 µM)

SMILES: CCOC(=O)CCCCCCC/C=C\C#CC#Cc1ccco1 [(Z)-ethyl 14-(furan-2-yl)tetradeca-9-en-11,13-diynoate]
IC50 [2]: 9 µg/mL (≈ 28.8 µM) | IC50 [3]: 0.7 µg/mL (≈ 2.24 µM) | IC50 [4]: 8.9 µg/mL (≈ 28.5 µM)

SMILES: CCCCCCCC/C=C\CCCCCCCC(=O)O [oleic acid, reference compound]
Doubling time [5]: 2.0 h | Doubling time ([5]; sodium salt): 2 h | decrease of the expression level of OLE1 [6]: about 6 fold

SMILES: COC(=O)CCCCCCC/C=C\C#CC#Cc1ccco1 [(Z)-methyl 14-(furan-2-yl)tetradeca-9-en-11,13-diynoate]
IC50 [2]: 0.4 µg/mL (≈ 1.34 µM) | IC50 [3]: > 0.4 µg/mL | value in brackets after the IC50 bound (not explained) ([3]; at the bound concentration): 6% | IC50 [7]: 0.19 µg/mL (≈ 0.637 µM) | IC50 [4]: > 0.4 µg/mL | value in brackets after the IC50 bound (not explained) [4]: 4%

MIC [8]: > 10.2 µg/mL | MIC [9]: > 10.2 µg/mL | MIC [10]: > 10.2 µg/mL | MIC [11]: > 10.2 µg/mL | MIC [12]: > 10.2 µg/mL | MIC [13]: > 10.2 µg/mL | MIC [14]: > 10.2 µg/mL | MIC [15]: > 10.2 µg/mL
SMILES: O=C(O)CCCCCCCc1ccccc1C#CC#Cc1ccco1 [VII″, 8-(2-(4-(furan-2-yl)buta-1,3-diynyl)phenyl)octanoic acid]

SMILES: O=C(O)CCCCCC/C=C\C#CC#Cc1ccco1 [(Z)-13-(furan-2-yl)trideca-8-en-10,12-diynoic acid]
IC50 [2]: > 200 µg/mL | IC50 [3]: ~50 µg/mL (≈ 185 µM) | IC50 [7]: 0.5 µg/mL (≈ 1.85 µM) | IC50 [4]: > 200 µg/mL | value in brackets after the IC50 bound (not explained) [4]: 25%

SMILES: O=C(O)CCCCC/C=C\C#CC#Cc1ccco1 [(Z)-12-(furan-2-yl)dodeca-7-en-9,11-diynoic acid]
IC50 [2]: 50 µg/mL (≈ 195 µM) | IC50 [3]: ~6.25 µg/mL (≈ 24.4 µM) | IC50 [7]: 1.8 µg/mL (≈ 7.02 µM) | IC50 [4]: ~50 µg/mL (≈ 195 µM)

SMILES: Nc1nc(=O)[nH]cc1F [5-fluorocytosine]
Fungicidal Concentration [1]: 1563 ng/mL | MIC90 ([1]; 24 h, read-out: MIC90 24 h): 0.098 µg/mL (≈ 0.759 µM) | MIC90 ([1]; 48 h, read-out: MIC90 48 h): 0.195 µg/mL (≈ 1.51 µM)

SMILES: C[C@@H]([C@H](N)C(=O)N[C@H](C(=O)O)[C@H]1O[C@@H](n2ccc(=O)[nH]c2=O)[C@H](O)[C@@H]1O)[C@H](O)c1ccc(O)cn1 [Nikkomycin Z, reference compound]
% Inhibition, Chitin Synthase [16]: 61%

SMILES: CCCCCCCCOc1ccc(C(=O)N[C@H]2C[C@@H](O)[C@@H](O)NC(=O)[C@@H]3[C@@H](O)[C@@H](C)CN3C(=O)[C@H]([C@@H](C)O)NC(=O)[C@H]([C@H](O)[C@@H](O)c3ccc(O)cc3)NC(=O)[C@@H]3C[C@@H](O)CN3C(=O)[C@H]([C@@H](C)O)NC2=O)cc1 [Cilofungin, reference compound] ({Benzoyl(4-octyloxy)}-[Orn(4R-OH,5R-OH)]T[Hyp][hTyr(3S-OH,4S-OH)]T[Pro(3S-OH,4S-Me)]; lactam 1-C)
% Inhibition, (1,3)β-Glucan Synthase [17]: 51%

SMILES: O=C(O)CCCCCCC/C=C/C#CC#Cc1ccco1 [VIII″, (E)-14-(furan-2-yl)tetradeca-9-en-11,13-diynoic acid]
IC50 [2]: 3 µg/mL (≈ 10.6 µM) | IC50 [3]: 0.4 µg/mL (≈ 1.41 µM) | IC50 [7]: 0.004 µg/mL (≈ 0.0141 µM) | IC50 [4]: 2.7 µg/mL (≈ 9.5 µM) | MIC [14]: 0.15 µg/mL (≈ 0.528 µM)

MIC [8]: > 10.2 µg/mL | MIC [9]: > 10.2 µg/mL | MIC [10]: > 10.2 µg/mL | MIC [11]: > 10.2 µg/mL | MIC [12]: > 10.2 µg/mL | MIC [13]: > 10.2 µg/mL | MIC [14]: > 10.2 µg/mL | MIC [15]: > 10.2 µg/mL
SMILES: Cc1cc(C#CC#C/C=C\CCCCCCCC(=O)O)oc1C [VI″, (Z)-14-(4,5-dimethylfuran-2-yl)tetradeca-9-en-11,13-diynoic acid]

SMILES: CC(=O)N1CCN(c2ccc(OCC3COC(Cn4ccnc4)(c4ccc(Cl)cc4Cl)O3)cc2)CC1 (stereo not drawn) [Ketoconazole]
Fungicidal Concentration [1]: >800,000 ng/ml | MIC90 ([1]; 24 h, read-out: MIC90 24 h): 50 µg/mL (≈ 94.1 µM) | MIC90 ([1]; 48 h, read-out: MIC90 48 h): > 800 µg/mL

MIC [18]: 0.015 µg/mL (≈ 0.0515 µM) | MIC [19]: 0.002 µg/mL (≈ 0.00686 µM) | MIC [20]: 0.008 µg/mL (≈ 0.0275 µM) | MIC [21]: 0.004 µg/mL (≈ 0.0137 µM) | MIC [22]: 0.015 µg/mL (≈ 0.0515 µM) | MIC [23]: 0.008 µg/mL (≈ 0.0275 µM) | MIC [24]: 0.008 µg/mL (≈ 0.0275 µM) | MIC range against all dermatophyte strains [25]: 0.002 to 4 µg/mL | MIC [26]: 0.008 µg/mL (≈ 0.0275 µM) | MIC [27]: 0.008 µg/mL (≈ 0.0275 µM) | MIC [28]: 4 µg/mL (≈ 13.7 µM) | MIC [29]: 0.015 µg/mL (≈ 0.0515 µM)
SMILES: CN(C/C=C/C#CC(C)(C)C)Cc1cccc2ccccc12 [Terbinafine, reference compound]
net biosynthesis of ergosterol (13C-acetate incorporation) [30]: inhibited the incorporation of acetate into ergosterol
